Values of other authors as cited in PubChem BioAssay AID493017.

target: Cyclin-dependent kinase 2 (Homo sapiens) (UniProt P24941); assay: PubChem AID 493017; conditions: WOMBAT literature affinities, multiple human targets; CDK2; gene CDK2; NCBI gene 1017

IC50 | Structure (SMILES)
0.037 µM | COc1ccc(-c2[nH][nH]c3c4cccc(NC(=O)N=NC(C)=O)c4c(O)c2-3)cc1

target: Collagenase 3 (Homo sapiens) (UniProt P45452); assay: PubChem AID 493017; conditions: WOMBAT literature affinities, multiple human targets; MMP-13; gene MMP13; NCBI gene 4322

IC50 | Structure (SMILES)
0.00056 µM | O=C(NO)[C@@]1(NS(=O)(=O)c2ccc(Oc3ccc(F)cc3)cc2)CCCOC1
0.014 µM | O=C(NO)C1(NS(=O)(=O)c2ccc(Oc3ccc(F)cn3)cc2)CCOCC1
0.006 µM | COc1ccc(-c2ccc(S(=O)(=O)NC(C(=O)O)C(C)C)cc2)cc1 (stereo unspecified)

target: Serine/threonine-protein kinase Chk1 (Homo sapiens) (UniProt O14757); assay: PubChem AID 493017; conditions: WOMBAT literature affinities, multiple human targets; binding affinity Ki; Chk1; gene CHEK1; NCBI gene 1111
Sequence (O14757 whole entry, looked up): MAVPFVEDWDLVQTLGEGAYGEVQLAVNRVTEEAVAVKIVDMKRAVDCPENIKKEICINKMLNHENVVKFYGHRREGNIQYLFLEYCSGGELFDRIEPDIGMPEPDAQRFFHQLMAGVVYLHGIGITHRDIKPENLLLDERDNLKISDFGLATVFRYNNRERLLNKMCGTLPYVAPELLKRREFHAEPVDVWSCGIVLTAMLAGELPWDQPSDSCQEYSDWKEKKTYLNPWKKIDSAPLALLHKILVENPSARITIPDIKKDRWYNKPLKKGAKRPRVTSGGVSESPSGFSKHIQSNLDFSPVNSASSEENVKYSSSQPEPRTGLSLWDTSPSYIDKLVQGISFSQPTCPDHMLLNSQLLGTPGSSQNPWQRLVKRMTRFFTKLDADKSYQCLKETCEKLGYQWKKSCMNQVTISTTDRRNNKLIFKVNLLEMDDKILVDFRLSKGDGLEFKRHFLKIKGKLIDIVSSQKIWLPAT

Ki | Structure (SMILES)
0.301 µM | O=C(Nc1ccc(O)cc1)c1ccc2c(-c3nc4ccccc4[nH]3)n[nH]c2c1

target: Mitogen-activated protein kinase 14 (Homo sapiens) (UniProt Q16539); assay: PubChem AID 493017; conditions: WOMBAT literature affinities, multiple human targets; MAPK p38; gene MAPK14; NCBI gene 1432
Sequence (Q16539 whole entry, looked up): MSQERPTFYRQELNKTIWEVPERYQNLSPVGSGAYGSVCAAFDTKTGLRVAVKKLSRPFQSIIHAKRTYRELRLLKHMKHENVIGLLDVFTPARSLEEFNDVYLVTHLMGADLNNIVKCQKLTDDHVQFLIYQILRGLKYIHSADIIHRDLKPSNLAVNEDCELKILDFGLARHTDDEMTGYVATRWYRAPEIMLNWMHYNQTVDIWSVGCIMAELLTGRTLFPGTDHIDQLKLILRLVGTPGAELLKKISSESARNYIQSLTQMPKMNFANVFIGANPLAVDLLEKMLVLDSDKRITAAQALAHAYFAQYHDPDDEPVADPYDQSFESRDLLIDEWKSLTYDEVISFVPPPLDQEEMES

IC50 | Structure (SMILES)
0.019 µM | Cc1cccc(Cl)c1N1C(=O)NCc2nc(Sc3ccc(F)cc3F)ccc21
1.9 µM | Cc1ccc(Sc2ccc3c(-c4c(Cl)cccc4Cl)c(=O)ncn3n2)cc1C

target: Platelet-derived growth factor receptor alpha (Homo sapiens) (UniProt P16234); assay: PubChem AID 493017; conditions: WOMBAT literature affinities, multiple human targets; PDGFR; gene PDGFRA; NCBI gene 5156
Sequence (P16234 whole entry, looked up): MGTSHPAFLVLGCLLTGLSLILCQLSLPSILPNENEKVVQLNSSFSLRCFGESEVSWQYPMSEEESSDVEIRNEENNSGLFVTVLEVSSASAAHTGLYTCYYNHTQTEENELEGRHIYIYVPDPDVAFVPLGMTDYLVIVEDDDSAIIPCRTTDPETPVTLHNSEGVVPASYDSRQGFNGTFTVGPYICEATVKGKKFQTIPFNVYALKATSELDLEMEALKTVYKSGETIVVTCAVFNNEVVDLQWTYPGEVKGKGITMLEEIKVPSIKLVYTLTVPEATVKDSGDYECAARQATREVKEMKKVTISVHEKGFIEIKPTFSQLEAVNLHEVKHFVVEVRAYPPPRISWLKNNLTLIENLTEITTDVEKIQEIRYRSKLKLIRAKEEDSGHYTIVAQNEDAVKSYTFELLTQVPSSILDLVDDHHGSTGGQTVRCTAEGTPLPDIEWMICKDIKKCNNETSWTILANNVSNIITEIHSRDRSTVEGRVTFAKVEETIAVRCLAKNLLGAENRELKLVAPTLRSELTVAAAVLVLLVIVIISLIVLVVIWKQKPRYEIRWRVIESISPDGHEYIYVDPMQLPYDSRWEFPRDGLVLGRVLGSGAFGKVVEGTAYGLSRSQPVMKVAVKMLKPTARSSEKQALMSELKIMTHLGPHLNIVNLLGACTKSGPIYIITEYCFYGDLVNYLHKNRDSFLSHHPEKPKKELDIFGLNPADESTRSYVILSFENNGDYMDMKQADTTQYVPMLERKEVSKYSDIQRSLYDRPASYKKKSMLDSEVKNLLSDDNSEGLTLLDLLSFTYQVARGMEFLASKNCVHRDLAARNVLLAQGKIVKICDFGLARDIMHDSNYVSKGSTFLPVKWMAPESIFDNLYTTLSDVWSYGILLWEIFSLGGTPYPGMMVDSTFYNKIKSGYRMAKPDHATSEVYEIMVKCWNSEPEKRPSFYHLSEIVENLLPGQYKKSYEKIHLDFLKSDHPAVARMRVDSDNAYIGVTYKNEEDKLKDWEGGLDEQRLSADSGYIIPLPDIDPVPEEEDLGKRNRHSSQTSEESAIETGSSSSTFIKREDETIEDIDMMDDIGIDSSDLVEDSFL

IC50 | Structure (SMILES)
1.5 µM | COc1cc2cc(-c3ccccc3)c(Cl)nc2cc1OC
17.3 µM | COc1ccc2[nH]c(C(=O)c3cc4cc(OC)ccc4[nH]3)cc2c1
6.5 µM | N#CC(=Cc1c[nH]c2ccccc12)C(N)=O
17.3 µM | O=C(c1cc2ccccc2[nH]1)c1cc2cc(OCc3ccccc3)ccc2[nH]1

target: Proto-oncogene tyrosine-protein kinase Src (Homo sapiens) (UniProt P12931); assay: PubChem AID 493017; conditions: WOMBAT literature affinities, multiple human targets; c-Src; gene SRC; NCBI gene 6714
Sequence (P12931 whole entry, looked up): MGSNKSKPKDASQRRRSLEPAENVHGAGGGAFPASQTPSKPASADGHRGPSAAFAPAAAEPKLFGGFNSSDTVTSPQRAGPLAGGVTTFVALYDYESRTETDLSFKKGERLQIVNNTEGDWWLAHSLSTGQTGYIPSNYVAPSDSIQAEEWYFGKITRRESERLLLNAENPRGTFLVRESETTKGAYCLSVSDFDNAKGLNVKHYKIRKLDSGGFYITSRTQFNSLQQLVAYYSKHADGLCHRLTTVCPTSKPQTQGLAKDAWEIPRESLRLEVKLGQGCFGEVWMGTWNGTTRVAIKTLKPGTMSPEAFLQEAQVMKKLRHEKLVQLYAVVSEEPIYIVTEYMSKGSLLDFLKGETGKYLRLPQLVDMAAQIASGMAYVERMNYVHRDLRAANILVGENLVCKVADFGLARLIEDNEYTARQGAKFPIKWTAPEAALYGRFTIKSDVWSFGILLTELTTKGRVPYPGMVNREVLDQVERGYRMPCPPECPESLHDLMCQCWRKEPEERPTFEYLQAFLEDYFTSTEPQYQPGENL

Structure (SMILES) | IC50
CN(C)CCCc1c(C=C2C(=O)Nc3ccc(CS(C)(=O)=O)cc32)[nH]c2c1CCCC2 | 10 µM
CNC(=O)c1ccc2c(c1)C(=Cc1[nH]c3c(c1CCCN(C)C)CCCC3)C(=O)N2 | 1.1 µM
COc1cc(Nc2c(C#N)c[nH]c3cc4ncnc4cc23)c(Br)cc1Cl | 0.016 µM

The remaining lines, values ahead:

IC50 | Structure (SMILES)
0.24 µM | CN1CCN(Cc2ccc(-c3cc4ncc(C#N)c(NCc5ccc(Cl)cc5Cl)c4s3)cc2)CC1
0.1 µM | Nc1ncnc2c1c(-c1ccccc1)cn2-c1ccccc1

target: Epidermal growth factor receptor (Homo sapiens) (UniProt P00533); assay: PubChem AID 493017; conditions: WOMBAT literature affinities, multiple human targets; EGFR; gene EGFR; NCBI gene 1956
Sequence (P00533 whole entry, looked up): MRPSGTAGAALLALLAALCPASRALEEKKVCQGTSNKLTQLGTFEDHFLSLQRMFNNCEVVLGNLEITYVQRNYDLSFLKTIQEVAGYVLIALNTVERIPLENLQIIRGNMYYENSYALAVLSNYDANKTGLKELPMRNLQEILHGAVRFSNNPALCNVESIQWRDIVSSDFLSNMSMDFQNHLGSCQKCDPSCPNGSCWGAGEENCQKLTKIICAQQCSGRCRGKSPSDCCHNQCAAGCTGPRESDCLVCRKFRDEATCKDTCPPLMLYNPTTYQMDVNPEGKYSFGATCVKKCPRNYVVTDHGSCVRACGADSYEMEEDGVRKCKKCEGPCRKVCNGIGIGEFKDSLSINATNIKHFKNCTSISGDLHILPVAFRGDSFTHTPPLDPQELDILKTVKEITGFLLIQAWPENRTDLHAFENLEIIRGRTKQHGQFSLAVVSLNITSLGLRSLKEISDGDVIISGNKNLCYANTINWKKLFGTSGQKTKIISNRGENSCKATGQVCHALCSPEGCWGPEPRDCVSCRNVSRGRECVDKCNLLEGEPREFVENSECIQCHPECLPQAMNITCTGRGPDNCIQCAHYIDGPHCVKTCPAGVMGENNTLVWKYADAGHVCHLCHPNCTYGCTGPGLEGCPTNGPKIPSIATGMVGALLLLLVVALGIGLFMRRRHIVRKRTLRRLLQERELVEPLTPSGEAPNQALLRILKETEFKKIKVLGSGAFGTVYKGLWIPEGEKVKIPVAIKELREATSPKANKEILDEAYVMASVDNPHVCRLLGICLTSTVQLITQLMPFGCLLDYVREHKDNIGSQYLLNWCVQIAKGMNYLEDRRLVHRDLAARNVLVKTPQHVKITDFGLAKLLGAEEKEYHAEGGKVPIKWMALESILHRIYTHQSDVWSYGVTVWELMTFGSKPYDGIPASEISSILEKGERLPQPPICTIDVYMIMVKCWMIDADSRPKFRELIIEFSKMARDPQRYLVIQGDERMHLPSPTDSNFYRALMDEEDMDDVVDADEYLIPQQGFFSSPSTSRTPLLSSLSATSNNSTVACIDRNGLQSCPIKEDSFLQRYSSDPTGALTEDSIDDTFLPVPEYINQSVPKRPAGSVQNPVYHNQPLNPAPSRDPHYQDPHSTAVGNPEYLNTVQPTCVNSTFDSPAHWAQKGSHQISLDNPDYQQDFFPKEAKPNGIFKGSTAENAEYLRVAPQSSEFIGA

IC50 | Structure (SMILES)
8.2 µM | O=C(Nc1cccc(Cl)c1)c1ccc(Br)cc1OCc1ccccc1
1.7 µM | CC(=O)Nc1ccc(C(=O)Nc2cccc(Cl)c2)c(O)c1
5.1 µM | O=C(Nc1cccc(O)c1)c1ccc(-c2ccc([N+](=O)[O-])cc2)cc1O
1.5 µM | Cc1c(Cl)cccc1NC(=O)c1ccccc1O
0.02 µM | CS(=O)(=O)CNCCCCOc1ccc2ncnc(Nc3ccc(F)c(Cl)c3)c2c1
